What was measured:
[1] = molecular target: muscarinic acetylcholine receptors; assay: Inhibition of specific binding of 3H-Oxotremorine-M (3H-Oxo) to rat cortex membranes; set-up: species or system male Wistar rats; settings: 1.0 nM 3H-Oxotremorine, 30 min, 25° C., pH 7.4
Description: The pharmacological properties of the compounds of the invention can be illustrated by determining their capability to inhibit the specific binding of ^3 H-Oxotremorine-M (^3 H-Oxo). Birdsdall N. J. M., Hulme E. C., and Burgen A. S. V. (1980). "The Character of Muscarinic Receptors in Different Regions of the Rat Brain". Proc. Roy. Soc. London (Series B) 207,1.
^3 H-Oxo labels muscarinic receptor in the CNS (with a preference for agonist domains of the receptors). Three different sites are labeled by ^3 H-Oxo. […] Using the present experimental conditions only the high and medium affinity sites are determined.
The inhibitory effects of compounds on ^3 H-oxo binding reflects the affinity for muscarinic acetylcholine receptors.
(§1) All preparations are performed at 0-4° C. unless otherwise indicated. Fresh cortex (0.1-1 g) from male Wistar rats (150-250 g) is homogenized for 5-10 s in 10 mL 20 nM Hepes pH: 7.4, with an Ultra-Turrax homogenizer. The homogenizer is rinsed with 10 mL of buffer and the combined suspension centrifuged for 15 min. at 40,000×g. The pellet is washed three times with buffer. In each step the pellet is homogenized as before in 2×10 mL of buffer and centrifuged for 10 min. at 40,000×g.
The final pellet is homogenized in 20 mM Hepes pH: 7.4 (100 mL per g of original tissue) and used for binding assay. Aliquots of 0.5 mL is added 25 μL of test solution and 25 μL of ^3 H-Oxotremorine (1.0 nM, final concentration) mixed and incubated for 30 min. at 25° C. Non-specific binding is determined in triplicate using arecoline (1 μg/mL, final concentration) as the test substance. After incubation samples are added 5 mL of ice-cold buffer and poured directly onto Whatman GF/C glass fiber filters under suction and immediately washed 2 times with 5 mL of ice-cold buffer. The amount of radioactivity on the filters are determined by conventional liquid scintillation counting. Specific binding is total binding minus non specific binding.
Test substances are dissolved in 10 mL water (if necessary heated on a steam-bath for less than 5 min.) at a concentration of 2.2 mg/mL. 25-75% inhibition of specific binding must be obtained before calculation of IC50. The test value will be given as IC50 (the concentration (nM) of the test substance which inhibits the specific binding of ^3 H-oxo by 50%). IC50 =(applied test substance concentration) x([…])nM where Co is specific binding in control assays and Cx is the specific binding in the test assay. (The calculations assume normal mass-action kinetics).

[2] = molecular target: T1, muscarinic receptors (M1-site, pirenzepine sensitive site) (Rattus norvegicus, UniProt P08482); assay: Inhibition of 3HPRZ (pirenzepine, [N-methyl-3H]) binding to rat cerebral cortex membranes; set-up: species or system male Wistar rats; settings: rat cerebral cortex, 1.0 nM 3HPRZ, 60 min, 20° C., pH 7.4; read-out: 3HPRZ IC50
T1 construct: from tissue; host or cells: cerebral cortex membranes of male Wistar rats
T1 sequence (P08482 1-460): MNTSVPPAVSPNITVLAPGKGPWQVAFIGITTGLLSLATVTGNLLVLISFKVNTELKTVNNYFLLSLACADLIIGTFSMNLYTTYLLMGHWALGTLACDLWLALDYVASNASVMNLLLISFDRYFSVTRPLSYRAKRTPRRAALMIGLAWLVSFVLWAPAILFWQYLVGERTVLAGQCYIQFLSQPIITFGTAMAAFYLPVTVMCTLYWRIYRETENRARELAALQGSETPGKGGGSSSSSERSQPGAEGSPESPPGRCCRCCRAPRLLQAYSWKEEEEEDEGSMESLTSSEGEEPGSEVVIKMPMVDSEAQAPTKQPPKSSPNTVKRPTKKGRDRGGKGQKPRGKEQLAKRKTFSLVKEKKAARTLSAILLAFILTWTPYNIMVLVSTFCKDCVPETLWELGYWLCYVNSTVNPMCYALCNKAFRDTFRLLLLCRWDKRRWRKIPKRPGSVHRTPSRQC
Experimental: Furthermore the pharmacological properties of the compounds of the invention can also be illustrated by determining their capability to inhibit ^3 HPRZ (pirenzepine, [N-methyl-^3 H]) binding to rat cerebral cortex membranes.
Pirenzepine binds selectively to subtype of muscarinic receptors. Historically the type is named the M1 -site, whereas pirenzepine sensitive site would be more appropriate.
as §1, with “cortex ([…])” for “cortex (0.1-1 g)”, “rats (150-200” for “rats (150-250”, “20 mM” for “20 nM”, “with 2×10” for “with 10”, “in 3×10” for “in 2×10”
The final pellet is homogenized in 20 MM Hepes pH: 7.4 (100 mL per g of original tissue) and used for binding assay. Aliquots of 0.5 mL is added 20 μL of test solution and 25 μL of ^3 HPRZ (1.0 nM, final conc.), mixed and incubated for 60 min. at 20° C. Non-specific binding is determined in triplicate using atropine (1.0 μg/mL, final conc.) as the test substance. After incubation samples are added 5 mL of ice-cold buffer and poured directly onto Whatman GF/C glass fiber filters under suction and immediately washed 2 times with 5 mL of ice-cold buffer.
The amount of radioactivity on the filters are determined by conventional liquid scintillation counting. Specific binding is total binding minus non-specific binding.
Test substances are dissolved in 10 mL water, at a concentration of 0.22 mg/mL. 25-75% inhibition of specific binding must be obtained before calculation of IC50.
The test value will be given as IC50 (the concentration (nM) of the test substance which inhibits the specific binding of ^3 HPRZ by 50%). IC50 =(applied test substance concentration) x(Cx /Co -Cx)nM where Co is specific binding in control assays and Cx is the specific binding in the test assay. (The calculations assume normal mass-action kinetics).

nicotinic receptors = assay: Nicotinic channel receptor binding: [3H]-cystine binding to crude synaptic membranes from whole rat brain; settings: 1.25 nM [3H-cystine], about 60 min, about 4° C.
Experimental: Nicotinic Channel Receptor Binding Protocol:
The activity of the compounds claimed herein at the nicotinic receptor can be accomplished by the following assay.
Binding of […] to nicotinic receptors was accomplished using crude synaptic membrane preparations from whole rat brain (Pabreza et al. Molecular Pharmacol., 1990, 39:9). Washed membranes were stored at about -80° C. prior to use. Frozen aliquots were slowly thawed and resuspended in 20 volumes of buffer (containing: […] NaCl, 5 mM KCl, 2 mM MgCl2, 2 mM Tris-Cl, ph 7.4 @4° C.). After centrifuging at 20,000×g for 15 minutes, the pellets were resuspended in about 30 volumes of buffer. Homogenate (containing about 125-150 ug protein) was added to tubes containing concentrations of test compound and [^3 H-cystine] (1.25 nM) in a final volume of 500 uL. Samples were incubated for about 60 minutes at about 4° C., then rapidly filtered through GF/B filters presoaked in 0.5% polyethylimine using 3×4 mL of ice cold buffer. The filters were counted.

[3] = system: M1-sites of muscarinic receptors; settings: general statement; cited from earlier work
[4] = system: M2-sites of muscarinic receptors; settings: general statement; cited from earlier work

For `Clc1cncc(O[C@@H]2CN3CCC[C@H]2C3)n1` (relative stereo) [Compound 22, 6-Chloro-2-[endo-(+,-)-6-(1-azabicyclo[3.2.1]octyloxy)]-pyrazine], the IC50 [1] was 140 nM, the IC50 [2] was 52 nM and the Ki (nicotinic receptors) was 210 nM.
In the case of `CN1CCN(CC(=O)N2c3ccccc3C(=O)Nc3cccnc32)CC1` [pirenzepine], the muscarinic subtype selectivity [3] is given as “selective for M1 -sites” and the “interaction with M2-sites” value [4] is given as “also interact with M2 -sites”.
Work on `CN(C)CCOc1cnccn1` [Compound 26, 2-(2-Dimethylaminoethoxy)pyrazine] yielded a Ki (nicotinic receptors) of 130 nM.
With `c1cnc(O[C@H]2CN3CCC[C@@H]2C3)cn1` (relative stereo) [Compound 21, 2-[endo-(+,-)-6-(1-azabicyclo[3.2.1]octyloxy)]-pyrazine] the IC50 [1] was 26 nM, the IC50 [2] was 123 nM and the Ki (nicotinic receptors) was 130 nM.
